Structures are written as SMILES. Where two headings read alike, the source gives them in different places.

In data set [1] the test system is norepinephrine- or KCl-contracted rat thoracic aorta. Kind of data set: Vasodilating activity: relaxation of contracted thoracic aorta helical strips. Also on record: species or system Male Sprague-Dawley rats. As to conditions: for IC50: cumulative application, pH 7.4, 37° C.; for relaxation of the aorta compared with papaverine: vs papaverine, norepinephrine or KCl contraction. How it is done: Male Sprague-Dawley rats weighing 250-300 g were sacrificed by cervical dislocation and exsanguinated. The thoracic aorta was dissected out and helical strips, 2 mm wide and 10 mm long, were prepared. Each preparation was mounted in a 10 ml organ bath containing physiological saline solution (Krebs-Henzeleit solution, pH 7.4). The solution was gassed with 95% O2 - 5% CO2 at 37° C. and a resting tension of 0.5 g was applied. Tissues were allowed to equilibrate for at least 60 minutes before the application of test substances. The developed tension was measured isometrically with a force-displacement transducer and recorded on pen-recorder. Tissues had been contracted with 10^-7 M norepinephrine or isotonic 60 mM KCl and test substances were applied cumulatively.

For a further data set, the system named is ICR male mice. Kind of data set: Acute toxicity in mice (i.v.). As to conditions: five mice per dose. The class given is in vivo. The method, then:
The acute toxicity of Mer-A2026A was determined in ICR male mice. Five mice were used at each dose.

The test system of the next data set is blood pressure. The data set can be described thus: Depressor effect in anesthetized spontaneously hypertensive rats (i.v.). In kind it is in vivo, Male spontaneously hypertensive rats (SHR rats). Also on record: Vasodepression / Duration time: unit not given here. As to conditions: for Duration time / Vasodepression: injected into femoral vein. The method, then: Male spontaneously hypertensive rats (SHR rats), 25-31 weeks old, were anesthetized with 40 mg/kg of pentobarbital sodium injected intraperitoneally. For the measurement of blood pressure, a cannula was inserted into the left carotid artery and connected to a multipurpose polygraph through a pressure transducer. Each animal was allowed to equilibrate for at least 30 minutes before injection and test substances were injected into the femoral vein through a polyethylene tube.

Setting [2] is: 10^-7 M norepinephrine contraction, read-out: IC50 Norepinephrine (concentration needed to induce a 50% decrease in norepinephrine-induced contraction).
Where [3] appears, read: isotonic 60 mM KCl contraction, read-out: IC50 Isotonic KCl (concentration needed to induce a 50% decrease in KCl-induced contraction).

Consider `COc1cc(O)c(C)c(C/C=C(\C)C/C=C/C(C)=C/C(C)C(O)/C(C)=C/C(C)C)n1` (centres unmarked) [Mer-A2026A], for which, in “Solubility”, the “solubility in commonly available organic solvents” value is on record as “soluble”. The solubility in water result in “Solubility” was “insoluble”. For the same molecule, the IC50 was 0.2 µM in data set [1] (setting [2]) and 1 µM in data set [1] (setting [3]). Besides, the “relaxation of the aorta compared with papaverine” value in data set [1] is recorded as “more greatly relaxed the aorta than papaverine”. Also, the “acute toxicity (survival)” value in the data set on ICR male mice (250 μg/Kg intravenous) was “all survived”. In addition, in the data set on ICR male mice (500 μg/Kg intravenous), the “acute toxicity (deaths)” value is given as “sacrificed the one mouse”. The results for the Duration time with blood pressure (10 μg/kg), in the data set with blood pressure (30 μg/kg) and with blood pressure (100 μg/kg) were 0.2, 9.4 and 24.5, respectively. For the same molecule, the Vasodepression came to 3.6 in the data set on blood pressure (10 μg/kg), 25.0 in the data set on blood pressure (30 μg/kg) and 47.7 in the data set with blood pressure (100 μg/kg). In the data set with blood pressure (SHR rats, i.v., refers to Table 3), the “depressor effect (in words)” value was “markedly prolonged the duration time and decreased the blood pressure”.
Turning to `C/C=C(\C)C(O)C(C)/C=C(C)/C=C/C/C(C)=C/Cc1nc(OC)cc(O)c1C` (centres unmarked) [Mer-A2026B], in the data set “Solubility”, the “solubility in commonly available organic solvents” value is “soluble” and the solubility in water entry is given as “insoluble”. In data set [1] (setting [2]), the IC50 stood at 0.77 µM. Moreover, the IC50 in data set [1] (setting [3]) is 0.4 µM. Besides, the “relaxation of the aorta compared with papaverine” value in data set [1] is “more greatly relaxed the aorta than papaverine”.
As for `COc1ccc(Cc2nccc3cc(OC)c(OC)cc23)cc1OC` [Papaverine, reference compound], the IC50 in data set [1] (setting [2]) turned out to be 4.7 µM; in data set [1] (setting [3]), 17 µM. Further, in the data set on blood pressure (1000 μg/kg), the Duration time turned out to be 2.2. In addition, the Vasodepression in the data set with blood pressure (1000 μg/kg) is recorded as 52.0.

These data come from patent publication US5223519A, “4-hydroxypyridine derivatives, useful for treating circulatory diseases” (Mercian Corporation, priority 1990, dated 1993).
